The text below walks through data of patent publication US8629301B2, “Process for the purification of benzphetamine hydrochloride” (Mallinckrodt LLC, priority 2004, dated 2014).

This data set in a line: partition between organic layer (toluene) and aqueous layer at adjusted pH. The settings on record: for logD hydrocarbon water: toluene/water.

Each structure is given as a SMILES string.

On to `CN[C@@H](C)Cc1ccccc1` [Methamphetamine, methamphetamine], for which the “partition coefficient (ratio of equilibrium concentration in the organic layer to that in the aqueous layer)” value runs as follows: (pH 4) 0.015; (pH 6) 0.000; (pH 8) 0.124. The compound further showed a logD hydrocarbon water (pH 10) of 0.527.

On to `C[C@@H](Cc1ccccc1)N(C)Cc1ccccc1` [Benzphetamine, d-N-methyl-N-benzyl-beta-phenylisopropylamine], for which the “partition coefficient (ratio of equilibrium concentration in the organic layer to that in the aqueous layer)” value (pH 4) came out at 0.600, the “partition coefficient (ratio of equilibrium concentration in the organic layer to that in the aqueous layer)” value (pH 8) is recorded as “∞” and the “partition coefficient (ratio of equilibrium concentration in the organic layer to that in the aqueous layer)” value (pH 10) was “∞”. This compound also showed a logD hydrocarbon water (pH 6) of 1.87.
